What was measured:
[1] = test system: LIPA-α-syn aggregates; experiment: Stability of LIPA-α-syn inclusions after light stimulation (proportion of mCherry-positive cells with inclusions); type: cell-based, human; details: for reduction in the number of cells exhibiting stable LIPA-α-syn inclusions / effect on the proportion of cells with mCherry inclusions: HEK-293T cells overexpressing LIPA-α-syn; for reduction in the number of cells exhibiting stable LIPA-α-syn inclusions: 12 h pre-exposure to blue light, treatment with small molecule inhibitor, FIG. 16, n=5; for effect on the proportion of cells with mCherry inclusions: treatment with inactive small molecules, FIG. 18, n=5
Description: HEK-293T cells were seeded on 0.1% gelatin-coated glass coverslips in 24-well plates at a density of 10^4 cells per well (50% confluence) and transiently transfected, 24 h later, with 0.5 μg of LIPA-Empty, 0.6 μg LIPA-α-syn, and 1 μg LIPA-α-syn^ΔNAC per 4 wells, to obtain similar protein expression levels in all conditions. 24 h post-transfection, cells were exposed to blue light (λ=456 nm) using UHP-T-DI-LED series Ultra High-Power LEDs (Prizmatix), at an intensity of 0.8 mW/cm^2, as measured using LPM-100 light power meter (Amuza). Cells were collected at different time points and fixed in 4% paraformaldehyde for 15 min at room temperature (RT), then washed three times (5 min) with PBS and permeabilized with PBS containing 0.25% Triton X-100, for 30 min at RT. Cells were incubated in blocking buffer solution (PBS containing 5% BSA and 0.1% Triton X-100), for 1 h at RT. Coverslips were incubated with primary antibodies (see Table 1) diluted in blocking buffer solution for 2 h at RT. Coverslips were washed three times in blocking buffer solution (10 min) and appropriate Alexa Fluor® secondary antibodies (Life Technologies, see Table 1) were applied for 1 h at RT. Coverslips were washed twice with PBS (10 min) and counterstained with the fluorescent nuclear stain […] 4,6-diamidino-2-phenylindole (DAPI) (1:5000) for 5 min. Coverslips were then washed twice with PBS (10 min), mounted on Prolong® Gold Antifade (Molecular Probes), and imaged using a Zeiss LSM800 confocal microscope. For thioflavin S (ThS) staining, fixed and permeabilized cells were incubated with 0.05% ThS for 15 min, washed three times with 70% ethanol for 10 min, and then cells were directly counterstained with DAPI. All immunocytochemistry experiments were made with gentle rocking and protected from light.
(§1) To evaluate the number of mCherry-positive cells with aggregates, a total of 8-10 images per condition were collected using a fluorescence microscope (Nikon Eclipse 80i; 20× objective) and a total of 220-250 cells were quantified by two experimenters, in a blind manner, using ImageJ.
The stability of LIPA-α-syn inclusions in the absence of light stimulation was evaluated by assessing the proportion of mCherry-positive cells having inclusions. LIPA aggregates were allowed to form over a 12 h period under light stimulation and cells were collected at different time points up to 48 h post-illumination (FIG. 14).
The impact of treatment with potent small molecule inhibitors of α-syn aggregation, namely baicalein and myrecitin (Masuda et al., 2006; Zhu et al., 2004), on the stability of LIPA-α-syn inclusions was next evaluated. […] Treatment with baicalein or myrecitin had no effect on LIPA-Empty dissociation, confirming the specificity of these inhibitors (FIG. 17).
Previous studies have reported that both β-synuclein (β-syn) and mouse α-syn (ma-syn) overexpression inhibit human α-syn aggregation in cell culture and animal models. To test the impact of these two proteins on LIPA-α-syn inclusion formation, LIPA-α-syn was overexpressed with β-syn or ma-syn in HEK-293T cells, then transiently exposed to blue light for 12 h.

[2] = biological target: T1, LIPA-Empty aggregates (Arabidopsis thaliana, UniProt Q96524, E490G); experiment: Stability/dissociation of LIPA-Empty inclusions after light stimulation (proportion of mCherry-positive cells with inclusions); type: cell-based, human; details: HEK-293T cells overexpressing LIPA-Empty, 12 h pre-exposure to blue light, FIG. 17, n=5
T1 construct: expressed in transfected cells; host or cells: HEK-293T
T1 sequence (Q96524 1-498 E490G): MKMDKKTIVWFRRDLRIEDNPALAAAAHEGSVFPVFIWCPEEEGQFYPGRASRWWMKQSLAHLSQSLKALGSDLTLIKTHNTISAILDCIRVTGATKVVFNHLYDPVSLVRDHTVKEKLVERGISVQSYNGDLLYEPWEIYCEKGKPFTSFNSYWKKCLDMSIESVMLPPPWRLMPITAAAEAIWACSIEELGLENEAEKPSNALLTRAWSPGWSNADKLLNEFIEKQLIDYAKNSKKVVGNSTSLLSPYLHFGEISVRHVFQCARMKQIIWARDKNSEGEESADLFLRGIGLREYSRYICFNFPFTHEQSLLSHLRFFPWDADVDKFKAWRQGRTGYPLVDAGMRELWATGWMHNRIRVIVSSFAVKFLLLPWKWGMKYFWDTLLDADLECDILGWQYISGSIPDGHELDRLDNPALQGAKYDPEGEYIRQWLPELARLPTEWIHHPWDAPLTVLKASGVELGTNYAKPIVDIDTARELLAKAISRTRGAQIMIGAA
Description: HEK-293T cells were seeded on 0.1% gelatin-coated glass coverslips in 24-well plates at a density of 10^4 cells per well (50% confluence) and transiently transfected, 24 h later, with 0.5 μg of LIPA-Empty, 0.6 μg LIPA-α-syn, and 1 μg LIPA-α-syn^ΔNAC per 4 wells, to obtain similar protein expression levels in all conditions. 24 h post-transfection, cells were exposed to blue light (λ=456 nm) using UHP-T-DI-LED series Ultra High-Power LEDs (Prizmatix), at an intensity of 0.8 mW/cm^2, as measured using LPM-100 light power meter (Amuza). […]
as §1
The stability of LIPA-α-syn inclusions in the absence of light stimulation was evaluated by assessing the proportion of mCherry-positive cells having inclusions. […]
The impact of treatment with potent small molecule inhibitors of α-syn aggregation, namely baicalein and myrecitin (Masuda et al., 2006; Zhu et al., 2004), on the stability of LIPA-α-syn inclusions was next evaluated. […]

Molecule	reduction in the number of cells exhibiting stable LIPA-α-syn inclusions [1] [%]	effect on LIPA-Empty dissociation [2]	reduction of the proportion of cells exhibiting mCherry aggregates (LIPA-α-syn inclusions) ([1]; co-overexpression with LIPA-α-syn in HEK-293T cells, blue light 12 h, post-stimulation analysis, FIG. 19 and 21, n=5)	effect on the proportion of cells with mCherry inclusions [1]
O=c1cc(-c2ccccc2)oc2cc(O)c(O)c(O)c12 [baicalein]	50	no effect	–	–
O=c1c(O)c(-c2cc(O)c(O)c(O)c2)oc2cc(O)cc(O)c12 [myrecitin]	50	no effect	–	–
β-syn: β-synuclein overexpressed in cells; reported to inhibit human α-syn aggregation	–	–	significant reduction	–
O=C1C[C@@H](c2ccc(O)cc2)Oc2cc(O)cc(O)c21 [naringenin]	–	–	–	did not affect
O=c1c(-c2ccc(O)cc2)coc2cc(O)ccc12 [daidzein]	–	–	–	did not affect

Reference: patent publication US11939362B2, “Light-inducible protein aggregation system for modeling proteinopathies and neurodegenerative disorders” (UNIVERSITÉ LAVAL, priority 2018, dated 2024)
